According to patent EP4268819A1 (priority 2022, dated 2023):
Read-outs that look alike come from different tables or passages of the source.

Legend:
[1] = tested on: SARS-CoV-2 clinical omicron isolate; assay: microbe, parasite or virus in culture; settings: Severe acute respiratory syndrome coronavirus 2, Calu-3
[2] = tested on: SARS-CoV-2 clinical omicron isolate

SMILES	IC50 [1] [nM]	Therapeutic range: CC50/IC50 (CTG) ([2]; human, calu-3 cells)	Therapeutic range: CC50/IC50 (IncuCyte) ([2]; human, calu-3 cells)	Therapeutic range: CC50/IC50 (MTT) ([2]; human, calu-3 cells)	Therapeutic range: CC50/IC50 (CTG) ([2]; SARS-CoV-2 omicron in Calu-3 cells, CC50 by CTG)	Therapeutic range: CC50/IC50 (IncuCyte) ([2]; SARS-CoV-2 omicron in Calu-3 cells, CC50 by IncuCyte)	Therapeutic range: CC50/IC50 (MTT) ([2]; SARS-CoV-2 omicron in Calu-3 cells, CC50 by MTT)
[H]/N=C(/N)N/C(=N/[H])NCCc1ccccc1 [Phenformin]	1350	CTG: 1674	IncuCyte: 1111	MTT: 1123			
COc1[nH]c(=O)c(C(=O)[C@@H](C)C[C@H](C)[C@@H](Cl)CCl)c(O)c1OC [Atpenin A5, atpenin A5]					CTG: 1.3	IncuCyte: > 117.6	MTT: 1.8
